Structures can show the parent of a compound that is named as a salt.
Experiments:
Assay type in all cases: biochemical
[1] = biological target: recombinant human enteropeptidase (Homo sapiens (Human), UniProt P98073); test: Measurement of enteropeptidase inhibitory activity; conditions: substrate Gly-Asp-Asp-Asp-Asp-Lys-β-Naphtylamide, Tris-HCl pH 8.0, Dixon plot
Method: Measurement of Enteropeptidase Inhibitory Activity
Using a 96 well plate (#3915, Costar), a test compound (25 μL), 400 mM Tris-HCl buffer (pH 8.0, 25 μL) and 0.5 mg/mL fluorescence enzyme substrate (Gly-Asp-Asp-Asp-Asp-Lys-β-Naphtylamide, 25 μL) were mixed, and recombinant human enteropeptidase (R&D Systems, Inc., 25 μL) was added. Using a fluorescence plate reader fmax (Molecular Devices, Inc.), the reaction rate was measured from the time-course changes at excitation wavelength 320 nm and fluorescence wavelength 405 nm. The Ki value was calculated from the concentration of the test compound, reciprocal of reaction rate, and Km value of the enzyme substrate, and by using Dixon plot.

human trypsin [2] = test: Measurement of trypsin inhibitory activity; conditions: substrate Boc-Phe-Ser-Arg-AMC, Tris-HCl pH 8.0, Dixon plot
Method: (§1) Measurement of Trypsin Inhibitory Activity
(§2) Using a 96 well plate (#3915, Costar), a test compound (25 μL) was mixed with 20 μM fluorescence enzyme substrate (Boc-Phe-Ser-Arg-AMC, 50 μL) mixed with 200 mM Tris-HCl buffer (pH 8.0), and human trypsin (Sigma, 25 μL) was added. Using a fluorescence plate reader fmax (Molecular Devices, Inc.), the reaction rate was measured from the time-course changes at excitation wavelength 355 nm and fluorescence wavelength 460 nm. The Ki value was calculated from the concentration of the test compound, reciprocal of reaction rate, and Km value of the enzyme substrate, and by using Dixon plot.

human trypsin [3] = biological target: human trypsin (Homo sapiens, UniProt P07477); test: Measurement of trypsin inhibitory activity; conditions: substrate Boc-Phe-Ser-Arg-AMC, Tris-HCl pH 8.0, Dixon plot
Method: as §1, §2

Sequence of recombinant human enteropeptidase (P98073 whole entry): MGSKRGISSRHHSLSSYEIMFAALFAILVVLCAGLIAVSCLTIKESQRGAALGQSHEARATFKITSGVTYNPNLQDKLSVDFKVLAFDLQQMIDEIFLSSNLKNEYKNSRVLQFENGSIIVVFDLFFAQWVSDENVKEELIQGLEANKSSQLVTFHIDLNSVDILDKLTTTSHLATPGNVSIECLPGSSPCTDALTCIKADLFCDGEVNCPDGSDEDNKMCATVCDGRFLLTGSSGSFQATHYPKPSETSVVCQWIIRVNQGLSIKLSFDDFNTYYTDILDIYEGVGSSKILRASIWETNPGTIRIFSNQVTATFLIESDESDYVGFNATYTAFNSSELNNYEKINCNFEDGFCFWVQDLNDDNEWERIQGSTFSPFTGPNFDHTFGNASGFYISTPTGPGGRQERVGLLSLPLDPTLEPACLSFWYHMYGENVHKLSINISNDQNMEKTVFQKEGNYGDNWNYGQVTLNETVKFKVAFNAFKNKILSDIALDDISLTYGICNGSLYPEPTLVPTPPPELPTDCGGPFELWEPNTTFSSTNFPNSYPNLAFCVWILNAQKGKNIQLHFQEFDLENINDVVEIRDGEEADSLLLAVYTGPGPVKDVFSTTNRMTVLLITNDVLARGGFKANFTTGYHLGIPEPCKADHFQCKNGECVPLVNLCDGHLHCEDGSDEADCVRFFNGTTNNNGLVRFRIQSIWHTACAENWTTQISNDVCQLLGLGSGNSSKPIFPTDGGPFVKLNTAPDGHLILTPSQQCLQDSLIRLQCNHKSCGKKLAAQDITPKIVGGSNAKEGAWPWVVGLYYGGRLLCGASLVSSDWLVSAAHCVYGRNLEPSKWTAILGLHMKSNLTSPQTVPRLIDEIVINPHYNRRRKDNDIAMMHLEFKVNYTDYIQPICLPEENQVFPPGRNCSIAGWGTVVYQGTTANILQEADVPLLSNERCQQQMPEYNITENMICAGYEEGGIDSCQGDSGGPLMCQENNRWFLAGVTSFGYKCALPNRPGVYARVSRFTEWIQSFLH

SMILES	Ki [1]	Ki (human trypsin [2])	Ki (human trypsin [3])
CC(C)(Cc1ccc(C(=O)Oc2ccc(C(=N)N)cc2F)s1)C(=O)NCC(=O)O [Compound 3]	0.29 nM	0.42 nM	
CCC(CC)(Cc1ccc(C(=O)Oc2ccc(C(=N)N)cc2F)s1)C(=O)N[C@H](C(=O)O)C(C)C [Compound 13]	1.56 nM	5.18 nM	
CC[C@H](NC(=O)C(CC)(CC)Cc1ccc(C(=O)Oc2ccc(C(=N)N)cc2F)s1)C(=O)O [Compound 28]	0.65 nM	1.93 nM	
CCC(CC)(Cc1ccc(C(=O)Oc2ccc(C(=N)N)cc2F)s1)C(=O)NCCCC(=O)O [Compound 30]	0.94 nM	2.73 nM	
CC(C)(Cc1ccc(C(=O)Oc2ccc(C(=N)N)cc2F)s1)C(=O)Nc1cccc(C(=O)O)c1 [Compound 32]	1.43 nM	0.7 nM	
CC(C)(Cc1ccc(C(=O)Oc2ccc(C(=N)N)cc2F)s1)C(=O)Nc1ccc(C(=O)O)cc1 [Compound 31]	1.08 nM	2.89 nM	
C=CCN(CCS(=O)(=O)O)C(=O)C(C)(C)Cc1ccc(C(=O)Oc2ccc(C(=N)N)cc2F)s1 [Compound 23, N-allyl-N-{3-[5-(4-amidino-2-fluoro-phenoxycarbonyl)-thiophen-2-yl]-2,2-dimethylpropionyl}taurine]	1.81 nM	3.17 nM	
CCC(CC)(Cc1ccc(C(=O)Oc2ccc(C(=N)N)cc2F)s1)C(=O)N[C@H](CCC(=O)O)C(=O)O [Compound 43]	0.42 nM	1.96 nM	
CCC(CC)(Cc1ccc(C(=O)Oc2ccc(C(=N)N)cc2F)s1)C(=O)N[C@@H](Cc1ccccc1)C(=O)O [Compound 16]	1.1 nM	8.3 nM	
CC(C)(Cc1ccc(C(=O)Oc2ccc(C(=N)N)cc2F)s1)C(=O)N[C@@H](CO)C(=O)O [Compound 4]	0.46 nM		0.75 nM
CCC(CC)(Cc1ccc(C(=O)Oc2ccc(C(=N)N)cc2F)s1)C(=O)O [Compound 18, 3-[5-(4-amidino-2-fluorophenoxycarbonyl)thiophen-2-yl]-2,2-diethylpropanoic acid trifluoroacetic acid salt]	1.24 nM		2.49 nM
CCCN(CC(=O)O)C(=O)C(C)(C)Cc1ccc(C(=O)Oc2ccc(C(=N)N)cc2F)s1 [Compound 10, N-{3-[5-(4-amidino-2-fluoro-phenoxycarbonyl)thiophen-2-yl]-2,2-dimethylpropionyl}-N-propylglycine hydrochloride]	0.49 nM	1.5 nM	
CCC(CC)(Cc1ccc(C(=O)Oc2ccc(C(=N)N)cc2F)s1)C(=O)N[C@@H](CO)C(=O)O [Compound 11, N-{3-[5-(4-amidino-2-fluoro-phenoxycarbonyl)thiophen-2-yl]-2,2-diethylpropionyl}-L-serine hydrochloride]	0.41 nM		1.87 nM
CC(C)(Cc1ccc(C(=O)Oc2ccc(C(=N)N)cc2F)s1)C(=O)N[C@H](C(=O)O)C1CCCCC1 [Compound 35]	2.56 nM		3.04 nM
CCC(CC)(Cc1ccc(C(=O)Oc2ccc(C(=N)N)cc2F)s1)C(=O)N1CCC[C@@H]1C(=O)O [Compound 22]	1 nM		3.57 nM
CCC[C@H](NC(=O)C(CC)(CC)Cc1ccc(C(=O)Oc2ccc(C(=N)N)cc2F)s1)C(=O)O [Compound 29]	1.18 nM	3.84 nM	
CCCN(CC(=O)O)C(=O)C(CC)(CC)Cc1ccc(C(=O)Oc2ccc(C(=N)N)cc2F)s1 [Compound 20]	2.61 nM		7.91 nM
N=C(N)c1ccc(OC(=O)c2ccc(CC3(C(=O)N[C@@H](CC(=O)O)C(=O)O)CCCC3)s2)c(F)c1 [Compound 2, N-{1-[5-(4-amidino-2-fluorophenoxycarbonyl)thiophen-2-ylmethyl]-2-cyclopentylcarbonyl}-1-aspartic acid trifluoroacetic acid salt]	0.73 nM		4.1 nM
CC(C)(Cc1ccc(C(=O)Oc2ccc(C(=N)N)cc2F)s1)C(=O)N1CC[C@@H](C(=O)O)C1 [Compound 33]	1.02 nM		2 nM

Second part, the compound after the results:

Ki [1]	Ki (human trypsin [2])	Ki (human trypsin [3])	SMILES
3.26 nM	1.97 nM		CC[C@H](C)[C@@H](CC(=O)O)NC(=O)C(CC)(CC)Cc1ccc(C(=O)Oc2ccc(C(=N)N)cc2F)s1 [Compound 49, N-{3-[5-(4-amidino-2-fluoro-phenoxycarbonyl)thiophen-2-yl]-2,2-diethylpropionyl}-beta-homoisoleucine hydrochloride]
0.67 nM	1.69 nM		CCC(CC)(Cc1ccc(C(=O)Oc2ccc(C(=N)N)cc2F)s1)C(=O)N[C@@H](CC(N)=O)C(=O)O [Compound 44]
0.98 nM	5.17 nM		CCC(CC)(Cc1ccc(C(=O)Oc2ccc(C(=N)N)cc2F)s1)C(=O)NCCCCC(=O)O [Compound 62]
0.67 nM	1.01 nM		CC(C)(Cc1ccc(C(=O)Oc2ccc(C(=N)N)cc2F)s1)C(=O)NC1(C(=O)O)CC1 [Compound 57]
0.53 nM	0.92 nM		CC(C)(Cc1ccc(C(=O)Oc2ccc(C(=N)N)cc2F)s1)C(=O)Nc1ccc(O)c(C(=O)O)c1 [Compound 47]
1.58 nM	3.88 nM		CC(C)(Cc1ccc(C(=O)Oc2ccc(C(=N)N)cc2F)s1)C(=O)N1CCC[C@H]1CC(=O)O [Compound 41]
2.56 nM	2.73 nM		CCC(CC)(Cc1ccc(C(=O)Oc2ccc(C(=N)N)cc2F)s1)C(=O)N[C@@H]1COC(=O)C1 [Compound 34]
0.53 nM	0.75 nM		CC(C)(Cc1ccc(C(=O)Oc2ccc(C(=N)N)cc2F)s1)C(=O)NCc1nnn[nH]1 [Compound 65]
0.69 nM	1.42 nM		CCC(CC)(Cc1ccc(C(=O)Oc2ccc(C(=N)N)cc2F)s1)C(=O)NCC(=O)NCC(=O)O [Compound 77]
1.33 nM	4.67 nM		CCC(CC)(Cc1ccc(C(=O)Oc2ccc(C(=N)N)cc2F)s1)C(=O)NC1(C(=O)O)CCC1 [Compound 80]
2.9 nM	3.65 nM		CC(C)(Cc1ccc(C(=O)Oc2ccc(C(=N)N)cc2F)s1)C(=O)NCCC#N [Compound 63]
1.11 nM		1.7 nM	CC(C)(Cc1ccc(C(=O)Oc2ccc(C(=N)N)cc2F)s1)C(=O)N[C@H]1CC[C@@H](C(=O)O)CC1 [Compound 70]
2.69 nM	9.27 nM		CCC(CC)(Cc1ccc(C(=O)Oc2ccc(C(=N)N)cc2F)s1)C(=O)NCc1ccc(C(=O)O)cc1 [Compound 53]
1.2 nM	3.54 nM		CCC(CC)(Cc1ccc(C(=O)Oc2ccc(C(=N)N)cc2F)s1)C(=O)NCc1nnn[nH]1 [Compound 81]
0.67 nM	2.01 nM		CC(C)(Cc1ccc(C(=O)Oc2ccc(C(=N)N)cc2F)s1)C(=O)N(CC(=O)O)CC1CC1 [Compound 76]
0.51 nM	1.49 nM		CC(C)(Cc1ccc(C(=O)Oc2ccc(C(=N)N)cc2F)s1)C(=O)NC1(C(=O)O)CCC1 [Compound 56]
